Laboratory results: ChEMBL document CHEMBL3507680, “University of Dundee, Gates Library screen for HepG2 cell viability”

assay: Human HepG2 cell viability assay in 384 well format; format: toxicity, cell-based; parameters: dose 125 nL, time 70.5 hour; concentration not given beside the values; settings: HepG2 cells, read-out: Inhibition

SMILES | cytotoxicity at 70.5 h [%]
Cc1ccccc1N1CCN(c2ccncn2)C(C)C1 (configuration not stated) | -2.86
COCC(NC(=O)c1cc(NC(C)=O)ccc1Cl)c1ccnn1C (configuration not stated) | -1.93
OCc1ccc(CN2CCC(n3cc(-c4ccc(F)cc4)nn3)CC2)o1 | -8.09
COc1ccc(CN2CCN(CC3CC3)[C@@H]3CS(=O)(=O)C[C@@H]32)cc1O | -2.14
CN(Cc1ccco1)C(=O)[C@@]12CNC[C@@H]1CN(C1CCCC1)C2 | -23
CN(C)C(=O)N1CCCC(C(=O)N(C)Cc2cnc(N)nc2)C1 (configuration not stated) | -10.7
CNC(=O)[C@@H]1C[C@H](n2cc(-c3ccc(Cl)cc3)nn2)CN1 | -3.41
N#Cc1cccc(N2CCCC(CO)(Cc3ccccc3F)C2)n1 (configuration not stated) | 20.1
CCNC(=O)[C@@H]1C[C@H](N)CN1c1cc(C(F)(F)F)nc(N(C)C)n1 | 37.1
Cc1ccc(-c2nn(-c3cccc(F)c3)cc2CN(C)CCO)o1 | -4.83
Cc1cccc2c1nc(CCO)n2-c1ccc(NS(C)(=O)=O)nc1 | -8.44
CCNC(=O)[C@@H]1C[C@@H](n2cc(CN(CC)CC)nn2)CN1 | -13.5
CN(C)CCN(C)C[C@@H]1CN(C(=O)NC2CCCC2)C[C@@H]1CO | -8.45
O=C(Nc1ccc(-c2nc3c([nH]2)CCNC3)cc1)N1CCCC1 | -15.7
CN1CC2(CCCN(Cc3cccc(CCN)c3)C2)OC1=O (configuration not stated) | 2.55
COC(=O)NCC(=O)N1CCC(Oc2cccc(C)c2)CC1 | -5.33
O=C(O)C1(n2ccc(-c3ccco3)n2)CCN(Cc2cccnc2)CC1 | -4.45
Cc1nc(C(C)C)cc(N2CCC3(CCC(=O)N(CC4CC4)C3)CC2)n1 | -11
CN(C)c1ccccc1C(=O)N1CCOC2(CNCCOC2)C1 (configuration not stated) | -2.92
C[C@@H]1CN(CCCOc2ccc(F)cc2)CC[C@@]1(O)C1CCOCC1 | 2.59
O=C(CCCN1CCCCC1)NC(C(=O)O)c1ccc(Cl)cc1 (configuration not stated) | -5.87
Cc1nc(N(C)C/C=C/c2ccccc2)c2cnn(C)c2n1 | -5.71
COCC[C@]1(O)CCN(Cc2nc(C)cs2)C[C@H]1C | 15.3

SMILES | cytotoxicity at 70.5 h [%]
NC(=O)c1cccc(CC2CCN(C(=O)Cn3cnnn3)C2)c1 (configuration not stated) | -10.5
Cc1cccc(C(C(=O)N(C)CCc2cn[nH]c2)N(C)C)c1 (configuration not stated) | -8.71
CN(CCc1ccccn1)C(=O)c1ccccc1F | -4.18
Cc1ccc(F)c(OC2(C(=O)O)CCN(C(=O)c3ccco3)CC2)c1 | -7.46
O=C(CCCN1CCCCC1)N1CCN(C(=O)c2ccc[nH]2)CC1 | 3.29
Cc1cccnc1CC(C)NC1CCSCC1 (configuration not stated) | -3.02
CCN1CCN(Cc2nc(Cc3ccccc3)n[nH]2)CC1 | -5.11
CCNc1ncc(C(=O)N2CCOC(CCCc3ccccc3)C2)cn1 (configuration not stated) | 14.5
CC(C1CCN(C(=O)c2coc(CN3CCOCC3)c2)CC1)N(C)C (configuration not stated) | -1.57
CC(C)c1cc(NC2CCCN(C(=O)c3cccs3)C2)ncn1 (configuration not stated) | 2.55
COCCN1C(=O)[C@H]2CC[C@@H]1CN(c1nccc(C3CCCC3)n1)C2 | -4.32
O=S(=O)(NCc1ccccc1)N1CCN(c2ncccn2)CC1 | -18.4
Cn1cnnc1CC1CCN(Cc2nn(C)c3cccc(Cl)c23)CC1 | 39.8
COC[C@]1(O)CCN(C(=O)c2ccc(CN(C)C)o2)CC1(C)C | -12.5
CC(Oc1ccc(F)cc1F)C(=O)N1CCC2(CC1)CC(=O)N(C)C2 (configuration not stated) | 27.3
O=C(NCc1cn2cccnc2n1)C1CC(=O)N(Cc2cccnc2)C1 (configuration not stated) | 2.43
O=C(Cc1ccccn1)N1CCC2(CC1)[C@H](O)C[C@@H]2O | -12.4
CSc1ncc(CN2CC(Oc3c(C)cccc3C)C2)cn1 | -2.81
CC(C)c1cc(=O)[nH]c(-c2ccccc2CN2CCCCCC2)n1 | -13.2
CC(C)c1ncc(CN2C[C@@H](CN3CCCN(C)CC3)[C@@H](CO)C2)cn1 | -3.2
Cc1ccnn1CC(=O)N1CCN(C2CCc3ccccc3C2)CC1 (configuration not stated) | 3.04
Cc1nnc(CN2CCC3(CCC(=O)N([C@H]4CC[C@H](O)CC4)C3)CC2)o1 | -8.57
CSc1ccc(CN(CCO)C(=O)CCc2cccc(F)c2)cc1 | -15.9

SMILES | cytotoxicity at 70.5 h [%]
Cc1cc(F)cc(CN2CCCn3nc(CNS(C)(=O)=O)cc3C2)c1 | 0.898
O=C1CCOCCN1Cc1ccc(C(F)(F)F)c(F)c1 | 14.1
COc1ccc(Cl)cc1S(=O)(=O)N(C)CC(=O)Nc1cccnc1 | -5.02
CC(C)=CCN1CCN(Cc2nccn2C)[C@H]2CS(=O)(=O)C[C@H]21 | -7.09
COCC1CCN(C(C(=O)O)c2c(F)cccc2OC(C)C)CC1 (configuration not stated) | -6.42
CN(Cc1cc[nH]n1)C(=O)c1cn(Cc2ccccc2Cl)nn1 | -9.32
Cc1cc(C(=O)N2CCC(C)CC2)ccc1NS(C)(=O)=O | -4.78
Cc1cnccc1NCCn1ccnc1C1CCOC1 (configuration not stated) | -3.31
COc1cc(C)c(C)cc1S(=O)(=O)N(C)CC(=O)Nc1ccon1 | -15.2
CCn1cnnc1CCNC(=O)C1COc2ccc(OC)cc2C1 (configuration not stated) | -11.5
COCCNC(=O)c1cc(S(=O)(=O)N2CCCC2)cs1 | 14.3
COc1nccc(N2CC[C@H](CO)[C@@H](O)C2)c1C#N | -6.06
COc1ccc(Cl)cc1S(=O)(=O)N(C)CC(=O)Nc1ccon1 | -12
O=S(=O)(Cc1c(F)cccc1Cl)NCCCN1CCCCCC1 | -1.18
Cn1c(C(=O)N2CCc3[nH]cnc3C2C(=O)O)ccc1-c1ccccc1 (configuration not stated) | -2.27
NC(=O)C1CCN(C(=O)c2cc(S(=O)(=O)N3CCCCC3)cs2)CC1 | 14.2
CC1(C)CN(C(=O)c2ncc(F)cc2F)CCC1(O)CN1CCOCC1 (configuration not stated) | -0.112
O=C(NCCc1ccncc1)c1cccc(S(=O)(=O)N[C@@H]2CCNC2)c1 | 19
Cn1ccnc1CN1CCC(c2nnc(Cn3cccn3)n2C)CC1 | 24.7
CC1(C)CN(Cc2c[nH]c(CC3CCCC3)n2)CC[C@]1(C)O | -5.46
CCC(CO)n1cnc2scc(C)c2c1=O (configuration not stated) | -22.7
Cc1nc2c(c(N3CCN(Cc4ccco4)CC3)n1)CCNCC2 | -4.87
OCc1ccc(-c2nccn2CCC2=CCCCC2)o1 | -9.58

SMILES | cytotoxicity at 70.5 h [%]
CN1CCN(CCCNS(=O)(=O)Cc2ccccc2F)CC1 | -0.252
CCC(C(=O)NCc1ccncc1)N(c1ccc(F)cc1)S(C)(=O)=O (configuration not stated) | -0.482
COc1ccc(Cl)cc1S(=O)(=O)N(C)CC(=O)Nc1ccccc1 | -9.85
COc1cc(N2CCOC(c3ccc(F)cc3)C2)ncn1 (configuration not stated) | -6.22
COCCn1ccnc1C1CCCN(c2ncnc3c2CCC3)C1 (configuration not stated) | -0.0473
CC(C)(NC(=O)C1CCN(C2CCCCC2)CC1)c1nnc(N)s1 | 1.76
CCc1ccc(CN2CCNC(C(=O)N3CCN(C)CC3)C2)o1 (configuration not stated) | -3.44
CCc1ccc(CN2CCC(CNS(=O)(=O)C3CC3)C2)nc1 (configuration not stated) | -2.29
CC(Nc1ncnc2c1CCNC2)c1ccc(C(C)(C)C)cc1 (configuration not stated) | 2.81
Cc1cc(CN(C)c2nc(-c3ccccn3)nc3c2CCNCC3)n[nH]1 | -11.1
CC(C)c1cc(N(C)Cc2cc(C3CC3)on2)n2nccc2n1 | -8.41
CCNc1ccnc(N2Cc3cnn(Cc4ccc(F)cc4)c3C2)n1 | -4
Cc1ccc(-c2cn[nH]c2C2CCCN(c3ccnc(C)n3)C2)cc1 (configuration not stated) | -1.31
CCCOC(=O)N1CCC(c2nnc(Cn3cccn3)n2C2CC2)CC1 | 4.42
CCN1CCN(C(=O)c2cccc(CN3CCOCC3)c2)CC1 | -5.52
CCC[C@@H]1CN(Cc2cc(OC)c3c(c2)OCO3)C[C@H]1C(=O)O | -2.82
CCN(CC1CCCN(CCc2cccc(OC)c2)C1)C(=O)CCSC (configuration not stated) | -6.12
Fc1ccccc1CN1CCCN(c2ccc3cc[nH]c3n2)CC1 | -4.59
CC1CCN(S(=O)(=O)c2ccc(C(=O)N3CCSCC3)cc2)CC1 | -13
CC1CCCN(Cc2ccc(C(N)=O)cc2)C1 (configuration not stated) | 0.459
COCC(=O)N1CCCC(C(=O)N(C)CCCc2cnn(C)c2)C1 (configuration not stated) | 1
Cc1cc(-c2ccncc2)ccc1OCC(N)=O | -5
COC(=O)Cn1c(C)cc(=O)c2cc(F)ccc21 | -4.13

SMILES | cytotoxicity at 70.5 h [%]
O=C(c1cccnc1N1CCN(Cc2ccoc2)CC1)N1CCCCC1 | -0.284
CCCn1ccnc1CN1C[C@@H](CN2CCCCC2)[C@@H](CO)C1 | -2.74
CCSCC(C)NCc1nc(-c2cccnc2)no1 (configuration not stated) | 19.3
CC(CCn1cccn1)NCc1n[nH]c2c1CCCCC2 (configuration not stated) | 22.7
Cc1ccc(C)c(NC(=O)c2coc(C)n2)c1 | -6.52
Cc1cncc(C(=O)N2CCCC(O)(CN3CCCC3)C2)c1 (configuration not stated) | -19.8
O=C(CCS(=O)(=O)c1ccccc1)NC1CCOC2(CCOCC2)C1 (configuration not stated) | -8.45
CN(C)C(=O)c1ccc(C2CCCN2C(=O)CCC2=NNC(=O)CC2)s1 (configuration not stated) | -14.5
O=c1[nH]c(-c2ccncc2)nc2c1CCN(S(=O)(=O)N1CCCC1)C2 | -13.7
CCCc1cc(NCCC2CCCOC2)n2nccc2n1 (configuration not stated) | 14.3
COCCC1(CO)CCCN(C(=O)c2cccnc2OC)C1 (configuration not stated) | -5.91
Cc1c(C(=O)N(C)c2ccccc2)cccc1N(C)S(C)(=O)=O | -7.07
CC(C)[C@@H]1CN(CCCOc2ccc(F)cc2)C[C@H]1NS(C)(=O)=O | -8.14
O=C(c1cc(-c2cn[nH]c2)nc2cc(F)ccc12)N1CCS(=O)(=O)CC1 | -13.7
Cc1cc(C(F)(F)F)cc(=O)n1Cc1nc(C(C)C)no1 | -14.9
Cc1cccc(C)c1NC(=O)c1cccc(N(C)S(C)(=O)=O)c1C | -14.1
CC(=O)Nn1ccc2c(nnc3c(-c4ccc(F)cc4)cnn32)c1=O | -20.1
CSCCN1CCC(NC(=O)OC(C)(C)C)CC1 | -6.72
CC1CCCN(CCCNC(=O)c2ccc(N(C)S(C)(=O)=O)cc2Cl)C1 (configuration not stated) | -2.33
CCOc1ccc(CNCC(O)c2ccccc2)cc1Cl (configuration not stated) | -4.88
